Measurements published in patent US20140011772A1, “COMPOSITIONS AND METHODS FOR TREATING CONDITIONS ASSOCIATED WITH NEURONAL DYSFUNCTION” (NORTHWESTERN UNIVERSITY, priority 2009, published 2014).
Entries after “also recorded” stand apart in the source; their conditions may differ.

What was measured:
[1] = tested on: voltage-gated sodium channels of hippocampal CA1 pyramidal neurons; test: Voltage-clamp nucleated patch recordings of voltage-gated sodium currents in CA1 pyramidal cells; type: cell-based, rat
Method: To study the gating properties of the sodium channels, voltage-clamp recordings were performed in the nucleated patch configuration, which allows almost ideal voltage clamp, even for fast sodium currents (28). Recordings were performed at 24-25° C. using an Axopatch 200B (Axon Instruments) patch-clamp amplifier. Data were sampled at 20 kHz and filtered at 10 kHz. Patch pipettes had resistance of 2.5-4 MΩ (in working solution) and were pulled from Corning #0010 lead glass (WPI) or borosilicate 0.4 mm-walled glass (Dagan). The internal solution was CsCl-based and contained: 140 mM CsCl, 10 mM NaCl, 2 mM MgCl2, 10 mM EGTA, 2 mM Na2ATP, 0.1 mM NaGTP, 10 mM HEPES 10, pH 7.3 with CsOH.
Capacitive transients were reduced by wrapping the pipettes in parafilm and compensated using the fast compensation circuitry of the amplifier. The whole-cell configuration was obtained and the pyramidal identity of cells was quickly confirmed by presence of a sag in the membrane potential in response to a hyperpolarizing current injection. The pipette was then slowly withdrawn while applying a constant negative pressure (−90 to −130 mbar). After excision, patches were held at −90 mV with a small pressure (−15 to −20 mbar). Sodium currents were then obtained by offline digital subtraction of traces in TTX from control traces.
Drugs were applied to the patches by using a multi-barrel system consisting of 4 glass capillaries (1.5 mm ID) glued together and connected to a syringe pump (WPIL). The patch-pipette carrying the nucleated patch was inserted into each of the pipes, each containing a different extracellular solution. The system ensures that the solution speed is the same in each barrel. For these recordings, the extracellular solution consisted of HEPES-buffered ACSF: 138 mM NaCl, 10 mM HEPES, 2.5 mM KCl, 2 mM CaCl2, 1 mM MgCl2 and 25 mM glucose (pH 7.3), 50 μM CdCl2, 10 mM TEA, and the drugs of interest.
The voltage-dependence of activation was fit with a Boltzmann function f(V)=1/(1+exp(−(V−V1/2)/k)) raised to the third power, where V1/2 is the voltage at which the activation is half-maximal, and k is the slope factor. The voltage-dependence of inactivation was similarly determined using a Boltzmann function, f(V)=1/(1+exp ((V−V1/2)/k)). The time course of recovery from inactivation was fit with a bi-exponential equation of the form, f(t)=1-(A1 exp(−t/τ) +A2 exp(−t/τ2)), yielding two time constants (τ) and relative contribution (A).
Voltage-gated sodium currents were recorded in nucleated patches from CA1 pyramidal cells from 11- to 20-day-old rats. FFA was tested at 0.2 mM, a concentration similar to that used as Ican blocker (0.5 mM, (32) and as two-pore potassium channels opener (0.1 mM, (40)).
The effect of FFA on the amplitude of sodium currents recorded in nucleated patches was investigated using a 30 ms step (to 10 mV) from −70 mV (close to the resting potential of hippocampal pyramidal neurons). 200 μM FFA blocked 34% of the sodium current (FIG. 7). The mechanism of action of FFA on sodium channels was characterized in detail. Even with a cesium-based intracellular solution and in the presence of extracellular TEA and cadmium some contaminating currents could often still be detected in pyramidal cell nucleated patches; therefore analysis was performed on TTX-subtracted traces only. TTX-sensitive current data for the control and the FFA were obtained from different patches.

[2] = tested on: epileptiform discharges in 4AP treated rat hippocampal slices; test: 4AP-induced epileptiform discharges, extracellular recordings from the CA1 area of hippocampal slices; type: cell-based
Method: A, extracellular recordings from the CA1 area of a rat hippocampal slices in which epileptic-like activity was induced by bath application of 4AP (50 μM). […] B, in another 4AP treated slice, the effects of different concentrations of FFA were tested.
Similar pathophysiologies exist for epilepsy and various chronic pain disorders (see, e.g., Pappagallo M (2003) Clin Ther. 25:2506-38; herein incorporated by reference in its entirety). […] Epileptic discharges were induced in a slice of rodent hippocampal tissue by bath application of the voltage-gated potassium channel blocker 4-aminopyridine (4AP) (see, e.g., Lopantsev V, Avoli M. (1998) J Physiol. 509:785-96; Brückner C, et al., Neurosci Lett. 268:163-5; each herein incorporated by reference in their entireties). […] The effect of flufenamic acid on hippocampal neurons, for example, involves induction of neuronal hyperpolarization by activating a background potassium conductance, and a reduction of neuronal excitability by inhibition of the voltage-gated sodium current.
Hippocampal brain slices: 11- to 20-day-old Long-Evans rats were anesthetized with isoflurane and killed by decapitation. The brain was removed from the skull in ice-cold artificial cerebrospinal fluid (ACSF), containing: 125 mM NaCl, 25 mM NaHCO3, 2.5 mM KCl, 1.25 mM NaH2PO4, 1.8 mM CaCl2, 1 mM MgCl2 and 2 mM 5 glucose, bubbled with 95% O2 and 5% CO2 (pH 7.4). Transverse hippocampal slices (300 μm thick) were cut using a vibroslicer (Dosaka) and stored in a solution containing: 87 mM NaCl, 25 mM NaHCO3, 2.5 mM KCl, 1.25 mM NaH2PO4, 0.5 mM CaCl2, 7 mM MgCl2, 75 mM sucrose and 25 mM glucose, bubbled with 95% O2 and 5% CO2; slices were kept at 35° C. for 15-20 minutes and subsequently at 24-25° C.

[3] = tested on: CA1 hippocampal pyramidal neurons; test: Whole cell current-clamp recordings, firing upon depolarizing current injection; type: cell-based, rat; conditions: FFA 0.2 mM
Method: (A) Current clamp recordings obtained (at 32-33° C.) from a CA1 hippocampal neuron in response to depolarizing current injection (150 pA, 1 s, bottom) in control (top trace) and in the presence of FFA (200 μM, middle). (B) Firing frequency in response to a series of current injections (1 s, 30 pA steps) in control and in FFA.
(§1) Electrophysiological recordings: Slices were visualized with an Axioskop 2FS (Zeiss) upright microscope with a water-immersion 60× objective (0.9 NA, Olympus). For whole cell current-clamp recordings, the bath solution contained kynurenic acid (2 mM) and picrotoxin (0.1 mM) to block fast synaptic transmission, and pipettes were filled with internal solution consisting of: 140K-gluconate, 8 mM NaCl, 2 mM MgCl2, 1 mM EGTA, 2 mM Na2ATP 2, 0.1 mM NaGTP, 10 mM HEPES, pH 7.3 with KOH.
The effect of FFA on burst and tonic firing of hippocampal pyramidal neurons was examined during development of embodiments of the present invention (FIG. 13). Recordings were obtained in the presence of kynurenic acid (2 mM) and picrotoxin (0.1 mM) to block fast synaptic transmission. […] For a 150 pA depolarizing current pulse the firing frequency decreased from 21.7±1.82 Hz in control conditions to 1.87±0.61 Hz in FFA (FIG. 13A,B).

SNI rats = test: Von Frey pain thresholds in the spared nerve injury (SNI) model of chronic neuropathic pain; type: in vivo, rat; conditions: for analgesic effect: 10 mg/kg in ethanol, oral; for analgesic effect / effect on pain threshold: 10 mg/kg; for effect on pain threshold: 10 mg/kg oral, both paws / non-operative paw
Method: Von Frey thresholds (a standard measure of pain sensitivity) were measured on the operated paw (left panel) and on the contralateral paw (right panel) in adult rats. 4 animals received the drug (10 mg/kg oral administration), and 4 animals the vehicle only. […] Note the fast onset of the effect, which may be very important for clinical use.
Chronic pain constitutes a primary reason driving people to seek health care. Pain was has been described as “epidemic” by the American Academy of Pain Management (American Pain Society, 1999): 50 million Americans are partially or totally disabled by pain. […] In particular, the spared nerve injury model (SNI), a reliable animal model of chronic neuropathic pain, was used to test the effect of oral administration of FFA. Control experiments were performed administrating the vehicle only. […] KCNK channels regulate neuronal excitability by regulating membrane potential, input resistance and synaptic gain (see, e.g., Taverna S, et al., 2005, J Neurosci Oct. 5; 25(40):9162-70; Meuth S G, et al., 2003 J Neurosci. Jul. 23; 23(16):6460-9; each herein incorporated by reference in their entireties).

[4] = tested on: CA1 pyramidal neurons in 4-AP bathed slices; test: 4-AP induced burst firing, whole-cell current clamp in 4-AP bathed slices; type: cell-based, rat
Method: The trace segments between dashed lines are shown on an expanded time scale (insets) to resolve bursts. (B) Firing frequency in response to depolarizing current injections. (C) Interspike interval ratio (ISI) against different current injections. For each current step, the ISI ratio was obtained dividing the interval between the first two spikes by the mean interspike interval. Recordings were obtained at 24-25° C.
as §1
Experiments were conducted during development of embodiments of the present invention to examine the inhibitory effect of FFA on burst firing. All CA1 pyramidal cells show robust burst firing in the presence of 4-Aminopyridine (4-AP), a potassium channel blocker. Whole-cell current clamp recordings were obtained from CA1 pyramidal neurons in 4-AP bathed slices. These recordings were also performed at 32-33° C. and in the presence of kynurenic acid and picrotoxin.

[5] = FIG. 5: 100 ms pre-pulses, 30 ms test pulse to 0 mV, 2 nucleated patches

O=C(O)c1ccccc1Nc1cccc(C(F)(F)F)c1 [FFA, 2-[[3-(trifluoromethyl)phenyl]amino]benzoic acid] was tested, and the “Na+ channel activation slope factor (k/3)” value ([1]; 200 μM FFA) was 5.6±0.27 mV, the “block of the sodium current” value ([1]; 200 μM FFA, 30 ms step from −70 mV) was 34% and the “mean peak Na+ current amplitude” value ([1]; 200 μM FFA, 50 ms prepulse to −70 mV, test pulse to −10 mV, 15 nucleated patches) was −183.6±21.7 pA. The “Na+ channel activation mid-point potential” value ([1]; 200 μM FFA, Boltzmann raised to third power) was −11.3±1.36 mV, the “shift in voltage dependence of inactivation” value ([1]; 50 ms prepulse) was roughly 12 mV and the “steady-state inactivation mid-point potential” value ([1]; 50 ms prepulse, in FFA) was −67.8±1.4 mV. The “steady-state inactivation slope factor” value ([1]; 50 ms prepulse, in FFA) was 10.7±0.5 mV, the “steady-state inactivation mid-point potential” value ([1]; 200 ms prepulse, in FFA) was −74.1±2.6 mV and the “steady-state inactivation slope factor” value ([1]; 200 ms prepulse, in FFA) was 8.9±1.0 mV. For the same compound, the “sodium channel inactivation Boltzmann function half point” value [1, 5] was −89.7 mV, the “sodium channel inactivation Boltzmann slope” value [1, 5] was 9.1 mV and the “time constant of inactivation onset” value ([1]; at 0 mV, in FFA (0.2 mM)) was 0.70 ± 0.03 ms. The “fraction of sodium channels available for activation” value ([1]; at −70 mV, in FFA) was 0.57±0.04, the “effect on the sodium channel activation curve” value ([1]; hippocampal pyramidal neurons) was “No significant effect; also recorded: only minimal effect” and the “effect on epileptiform discharges” value ([2]; 50 μM FFA, 4AP treated slice) was “small reduction in the amplitude of individual events”. The “effect on epileptiform discharges” value ([2]; 100 μM FFA, 4AP treated slice) was “strongly reduced the discharge frequency”, the “effect on epileptiform discharges” value ([2]; 200 μM FFA, 4AP 50 μM) was “completely and reversibly inhibited the epileptiform discharges; also recorded: completely abolished the discharges” and the “antiepileptic effect, concentration dependence” value ([2]; 4AP treated slices, 50-200 μM) was “clear dose-dependent effect; also recorded: potent, concentration dependent, antiepileptic effect”. For the same compound, the firing frequency ([3]; 150 pA, 1 s depolarizing current pulse, kynurenic acid and picrotoxin) was 1.87±0.61 Hz, the “effect on number of action potentials / repetitive firing” value ([3]; 1 s-long depolarizing current injection) was “strongly decreased the number of action potentials; also recorded: effectively decreases repetitive firing” and the “analgesic effect” value (SNI rats) was “rapid and potent analgesic effect”. For the same compound, the “analgesic effect” value (SNI rats; listed as flufenamic acid) was “potent analgesic effect”, the “increase of Von Frey threshold on the injured paw” value (SNI rats; 10 mg/kg oral administration, operated paw) was “more than 10 times” and the “effect on pain threshold” value (SNI rats) was “significantly increased the pain threshold in the non-operative paw”. For the same compound, the “effect on pain threshold” value (SNI rats; listed as flufenamic acid) was “increased pain threshold in both paws”, the “effect on spikes and burst firing” value ([4]; 4-AP slice epilepsy model, bath application of FFA) was “dramatically reduced both the total number of spikes and bursting; also recorded: completely abolishes burst firing” and the “interspike interval (ISI) ratio” value ([4]; 120 pA current injection, 4-AP, FFA 0.2 mM) was 0.74±0.06.
